{"source": "paper PMC12320299", "about": "(Chemical Science, 2025)", "key": {"p21": {"test_system": "p21", "assay": "p21 expression, immunofluorescence, CT26", "assay_type": "cell-based, murine", "settings": "24 h, 1 μM", "description": "(§1) Cell Signaling Technology (Danvers, MA, USA), respectively. Horseradish-peroxidase-linked secondary antibodies, anti-mouse IgG (Fc specific) antibody (#7076S) and anti-rabbit IgG antibody (#7074S) were purchased from Cell Signaling Technology (Danvers, MA, USA). Anti-ß-actin (AC-15) (A5441, 1:2000) was obtained from Sigma-Aldrich (St. Louis, MO, USA).\n(§2) SW480 and CT26 cells were grown at a density of 6.7x10^4 cells/mL on 8-well glass coverslips (80841, ibidi GmbH, Gräfelfing, Germany) in 300 µL complete media. The next day, cells were treated with respective compounds for 24 h. Cells were fixed with 4%(v/v) paraformaldehyde for 15 min at RT, followed by washing, blocking and permeabilization with 5%(w/v) BSA and […]\n(§3) (1 : 500) were diluted in 1% BSA-0.3% Triton-X-100 in PBS and incubated overnight at 4 °C.\n(§4) One well was incubated without primary antibody as background control. Cells were washed and stained with secondary goat anti-mouse AlexaFlour-488 (1 : 500 dilution, A-11029, Thermo Fisher Scientific) or goat anti-rabbit AlexaFlour-488 (1 : 500 dilution, A-11034, Thermo Fisher Scientific) antibodies for 1 h at RT. Following, cells were stained with 0.2% Wheat Germ Agglutinin (WGA)-Rhodamine (RL-1022, Vector Laboratories, Inc.) and 0.1% DAPI (62248, Thermo Fisher Scientific) for staining of plasma membrane and nuclei, respectively, according to manufacturer’s recommendations. […]"}, "TP53": {"test_system": "TP53", "assay": "Immunofluorescence staining of TP53", "assay_type": "cell-based, human", "settings": "SW480, 24 h; 1a 1 μM; etoposide 100 nM", "description": "as §1, §2, §3, §4"}, "SW480 cancer cells": {"test_system": "SW480 cancer cells", "assay": "Cell cycle analysis by flow cytometry (propidium iodide)", "assay_type": "cell-based, human", "settings": "24 h; 1a 12.5 to 50 nM; gemcitabine 10 nM"}, "[1]": {"assay": "Total 101Ru content in tumour, organs and blood by ICP-MS", "assay_type": "in vivo, BALB/c mice", "settings": "4 h after last injection, 10 mg kg^−1 i.p.", "description": "Furthermore, tumour, organs and blood of the 1a-treated mice were collected 4 h after the last injection. […] Intraperitoneally administered compounds are primarily absorbed through the portal circulation, which can lead to a substantial liver exposure.[71] […] This paralleled earlier findings of other metal(arenes) in this tumour model.[72]\nAnimals. All experiments were carried out with male Balb/c mice according to the regulation of the Ethics Committee for the Care and Use of Laboratory Animals at the Medical University Vienna (BMWF-2022-0.770.291), the guidelines from the Austrian Animal Science Association and the Federation of European Laboratory Animal Science Associations (FELASA). The animals were kept in a pathogen-free conditions, controlled environment with 12 h light–dark cycle with ad libitum access to food and water. Every procedure was done in a laminar airflow […]\nTreatment. CT-26 cells ([…] in 50 μL serum-free medium) were injected subcutaneously (s.c.) into the right flank of ten– to eleven-week-old male Balb/c mice. Three days after cell injection, all compounds (dissolved in 10% DMSO in water) were administered […]\n1b/2b. Regarding anticancer activity experiments, mice were treated on 5 consecutive days over 2 weeks. Four hours after the last treatment 1a-treated mice were sacrificed and analysed for ruthenium levels in tissue via ICP-MS measurements. […]\nMissing data points were imputed. Permutation-based FDR was set to 0.05 and S0 = 0.1 for multi-parameter corrected significance testing of protein regulation. […]\nResources (Version 6.8)13 and STRING (Version 10.0).14\nAdditionally, statistical analysis of protein regulations from the in vivo samples was performed using the LIMMA R-package.15 P-values where adjusted according to Benjamini-Hochberg16 and a gene set variation analysis was performed (GSVA).17 Protein Sets where constructed using the molecular signature database.18\nTotal metal content in organs harvested from 1a-treated mice was determined by inductively coupled plasma mass spectrometry (ICP-MS) on an Agilent 7800 instrument and Agilent SPS 4 autosampler using the following parameters: RF power 1550, carrier gas (Ar) 1.08 L∙min-1, plasma gas (Ar) 15 L∙min-1, dwell time 0.1 s, 12 replicates with 100 sweeps. A […]\nby Agilent MassHunter (Version C.01.04) software.\nThe lower limit of quantification of the method was 0.071 µg L-1. Organs, tumour and blood were digested with nitric acid (20% w/w) and diluted with ultrapure water to reach a final nitric acid concentration <4%."}, "[2]": {"test_system": "murine CT26 colon carcinoma cells", "assay": "MTT viability assay, CT26, 96 h", "assay_type": "cell-based", "settings": "wildtype TP53", "description": "removed and 100 µL DMSO was added to dissolve the formazan crystals. Photometric quantification was performed at 570 nm with a Multiskan Go 1510 photometer (Thermo Fisher […]\nThe absorbances were blank corrected and converted to relative proliferation. The IC50 values (concentration of 50% growth inhibition) were obtained using a sigmoidal fit of the experimental data and calculated as the mean ± standard deviation of at least three independent experiments, each in at least triplicates.\nHCT116, HCT116 p53KO (each 2.000 cells/well) and CT-26 cells (500 cells/well) were seeded in 100 µL/well into flat-bottom 96-well plates (Starlab) and incubated at 37 °C for 96 h in a humidified incubator (Binder CB210) at 5% CO2. The test compound was dissolved in DMSO, serially diluted in the appropriate cell culture medium (see section above) to final DMSO concentrations of ≤0.5% v/v and 100 µL aliquots added to wells in triplicates. […] Optical densities were measured with a microplate reader (ELx808, Biotek) at a wavelength of 550 nm (and a reference wavelength of 690 nm) and blank corrected. […]\n(each 3.000 cells/well) were seeded in 100 µL/well into flat-bottom 96-well plates (Starlab) and incubated at 37 °C for 24 h in a humidified incubator (Binder CB210) at 5% CO2. […] After 24 h of treatment, plates were measured by MTT assay as described above. […]"}}}
{"compound": "CCC1=C2[O][Ru][O]C2(n2cccn2)c2ccccc2C1=O.Cc1ccc(C(C)C)cc1", "note": "(centres unmarked) [Compound 1a, [(3-ethyl-4-oxo-(pyrazolyl)-dihydronaphthalene)(cymene)ruthenium(II)]]", "values": [{"measurement": "p21 expression, CT26", "setting": "p21", "result": "significantly reduced p21 expression"}, {"measurement": "TP53 immunofluorescence signal", "setting": "TP53", "result": "decisive loss of TP53 signal intensity"}, {"measurement": "cell cycle distribution", "setting": "SW480 cancer cells", "result": "dose-dependent increase in the S and G2/M phases"}, {"measurement": "101Ru content, blood clot", "setting": "[1]", "result": "< 0.4", "unit": "mg/kg"}, {"measurement": "101Ru content, blood serum", "setting": "[1]", "result": "< 0.4", "unit": "mg/kg"}, {"measurement": "101Ru content, liver", "setting": "[1]", "result": "10 ± 1", "unit": "mg/kg"}, {"measurement": "101Ru content, tumour", "setting": "[1]", "result": "0.9 ± 0.7", "unit": "mg/kg"}, {"measurement": "IC50", "setting": "[2]", "result": "800 ± 150", "unit": "nM"}]}
